PMC10230504, “Versatile Chemo-Biocatalytic Cascade Driven by a Thermophilic and Irreversible C–C Bond-Forming α-Oxoamine Synthase” (ACS Sustainable Chemistry & Engineering, 2023)

Target: T1, ThAOS (Thermus thermophilus, UniProt Q5SHZ8)
T1 construct: gene TTHA1582; recombinant, codon-optimized clone (GenScript), expressed in E. coli BL21 (DE3), purified
T1 sequence (Q5SHZ8 2-395): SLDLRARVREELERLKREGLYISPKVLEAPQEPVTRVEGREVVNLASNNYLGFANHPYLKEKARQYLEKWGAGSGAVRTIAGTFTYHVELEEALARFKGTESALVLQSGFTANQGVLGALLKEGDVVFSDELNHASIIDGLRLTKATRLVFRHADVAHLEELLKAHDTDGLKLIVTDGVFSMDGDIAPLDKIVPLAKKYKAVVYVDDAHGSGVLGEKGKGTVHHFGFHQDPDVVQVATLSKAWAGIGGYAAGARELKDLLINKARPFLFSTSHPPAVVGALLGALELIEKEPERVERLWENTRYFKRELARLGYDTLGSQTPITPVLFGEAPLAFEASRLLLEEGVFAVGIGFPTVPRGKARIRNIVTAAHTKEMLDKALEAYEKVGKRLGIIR
Assay: DTNB assay of CoASH release; product confirmed by mass spectrometry
Type: biochemical
Conditions: co-substrate acyl-CoA; 50 °C

NCC(=O)O [Gly]
DTNB assay of CoASH release; product confirmed by mass spectrometry: ThAOS was active with AAs (S)-2-aminobutyric acid (L-Aba), L-Ala, Gly and L-Ser
